The values below come from patent publication US11089783B2, “2-(het)aryl-substituted fused heterocycle derivatives as pesticides” (Bayer Aktiengesellschaft, priority 2017, dated 2021).

What all share (assay type): in vivo
One assay has as its system Lucilia cuprina. In words: Lucilia cuprina test. Conditions: 48 h, L1 larvae, after 2 days, read-out: efficacy (kill). The procedure:
Solvent: dimethyl sulfoxide To produce a suitable active ingredient formulation, 10 mg of active ingredient are mixed with 0.5 ml of dimethyl sulfoxide, and the concentrate is diluted with water to the desired concentration. About 20 L1 larvae of the Australian sheep blowfly (Lucilia cuprina) are transferred into a test vessel containing minced horsemeat and the active ingredient formulation of the desired concentration. After 2 days, the kill in % is determined. 100% means that all the larvae have been killed; 0% means that no larvae have been killed.

The subject of assay [1] is Myzus persicae. In words: Myzus persicae oral test. Conditions: 120 h, after 5 days, read-out: efficacy. As to the method:
[table] To produce a suitable active ingredient formulation, 1 part by weight of active ingredient is dissolved with the stated parts by weight of solvent and made up to the desired concentration with water. 50 μl of the active ingredient preparation are transferred into microtitre plates and made up to a final volume of 200 μl with 150 μl of IPL41 insect medium (33%+15% sugar). Subsequently, the plates are sealed with parafilm, which a mixed population of green peach aphids (Myzus persicae) within a second microtitre plate is able to puncture and imbibe the solution. After 5 days, the efficacy in % is determined. 100% means that all the aphids have been killed; 0% means that no aphids have been killed.

Assay [2] has as its system Myzus persicae. The assay is described as follows: Myzus persicae spray test (MYZUPE), Chinese cabbage leaf discs. Conditions: for pest or weed control at 20 g/ha / pest or weed control at 100 g/ha: Myzus persicae, foliar, 120 h, 5 days (5 dat), read-out: efficacy. The procedure: (§1) [table] To produce a suitable active ingredient formulation, 1 part by weight of active ingredient is dissolved with the specified parts by weight of solvent and made up to the desired concentration with water containing an emulsifier concentration of 1000 ppm. To produce further test concentrations, the formulation is diluted with emulsifier-containing water. Discs of Chinese cabbage leaves (Brassica pekinensis) infested by all stages of the green peach aphid (Myzus persicae) are sprayed with an active ingredient formulation of the desired concentration. After 5 days, the efficacy in % is determined. 100% means that all the aphids have been killed; 0% means that no aphids have been killed. [table] To produce an appropriate active ingredient formulation, 1 part by weight of active ingredient is dissolved with the stated parts by weight of solvent and made up with water containing an emulsifier concentration of 1000 ppm until the desired concentration is attained. For production of further test concentrations, the mixture is diluted with emulsifier-containing water. Discs of chinese cabbage leaves (Brassica pekinensis) infested by all stages of the green peach aphid (Myzus persicae) are sprayed with an active ingredient formulation of the desired concentration. After the desired time, the efficacy in % is determined. 100% means that all aphids have been killed; 0% means that no aphids have been killed.

The next assay deals with Phaedon cochleariae. In words: Phaedon cochleariae spray test (PHAECO), Chinese cabbage leaf discs. The arrangement: key to repellent effect flag: REP = repellent effect. The settings on record: for pest or weed control at 100 g/ha: read-out: efficacy. As to the method: as §1, with “pekinensis)” for “pekinensis) infested by all stages of the green peach aphid (Myzus persicae)”, “concentration and, after drying, populated with larvae of the mustard beetle (Phaedon cochleariae).” for “concentration.”, “7” for “5”, “beetle larvae” for “aphids”

Another assay concerns Meloidogyne incognita. The assay is described as follows: Meloidogyne incognita test (MELGIN). The settings on record: 14 days (14 dat); for pest or weed control at 20 ppm: Meloidogyne incognita, 336 h, read-out: efficacy (nematicidal, gall formation). As to the method:
[table] To produce a suitable active ingredient formulation, 1 part by weight of active ingredient is mixed with the stated amount of solvent and the concentrate is diluted to the desired concentration with water. Vessels are filled with sand, active ingredient solution, an egg/larvae suspension of the southern root-knot nematode (Meloidogyne incognita) and lettuce seeds. The lettuce seeds germinate and the plants develop. The galls develop on the roots. After 14 days, the nematicidal efficacy in % is determined by the formation of galls. 100% means that no galls were found; 0% means that the number of galls on the treated plants corresponds to the untreated control. [table] To produce an appropriate active ingredient formulation, 1 part by weight of active ingredient is mixed with the specified amount of solvent and the concentrate is diluted to the desired concentration with water. Vessels are filled with sand, active ingredient solution, an egg/larvae suspension of the southern root-knot nematode (Meloidogyne incognita) and lettuce seeds. The lettuce seeds germinate and the plants develop. The root-knots develop on the roots. After the desired time, the nematicidal effect is determined from the formation of root-knots in %. 100% means that no root-knots were found; 0% means that the number of root-knots on the treated plants corresponds to that on the untreated control.

The next assay has as its system Aphis gossypii. In words: Aphis gossypii spray test (APHIGO), cotton plants. Conditions: 6 dat. The procedure:
(§2) [table] To produce an appropriate active ingredient formulation, 1 part by weight of active ingredient is dissolved with the specified parts by weight of solvent and made up with water containing an emulsifier concentration of 1000 ppm until the desired concentration is attained. To produce further test concentrations, the mixture is diluted with emulsifier-containing water. If addition of ammonium salts or/and penetrants is required, these are each added to the preparation solution in a concentration of 1000 ppm. Cotton plants (Gossypium hirsutum) severely infested by the cotton aphid (Aphis gossypii) are sprayed with an active ingredient formulation of the desired concentration. After the desired time, the kill in % is determined. 100% means that all aphids have been killed; 0% means that no aphids have been killed.

For a further assay, the system named is Nilaparvata lugens. In words: Nilaparvata lugens spray test (NILALU). The settings on record: 4 g/ha, 4 dat. The procedure: as §2, with “ppm. Rice” for “ppm. Cotton”, “plants (Oryza sativa)” for “plants (Gossypium hirsutum) severely infested by the cotton aphid (Aphis gossypii)”, “desired concentration and then populated with larvae of the brown planthopper (Nilaparvata lugens).” for “desired concentration.”, “the efficacy” for “the kill”, “all planthoppers” for “all aphids”, “no planthoppers” for “no aphids”

The subject of assay [3] is Myzus persicae. In words: Myzus persicae spray test (MYZUPE S), bell pepper plants. The settings on record: 144 h, 0.8 ppm, 6 dat, read-out: % efficacy. As to the method: [table] To produce an appropriate active ingredient formulation, 1 part by weight of active ingredient is dissolved with the specified parts by weight of solvent and made up with water containing an emulsifier concentration of 1000 ppm until the desired concentration is attained. To produce further test concentrations, the mixture is diluted with emulsifier-containing water. If addition of ammonium salts or/and penetrants is required, these are each added to the preparation solution in a concentration of 1000 ppm. Bell pepper plants (Capsicum annuum) severely infested by the green peach aphid (Myzus persicae) are treated by spraying with the active ingredient formulation in the desired concentration. After the desired time, the kill in % is determined. 100% means that all the animals have been killed; 0% means that no animals have been killed.

For a further assay, the system named is Nezara viridula. The assay is described as follows: Nezara viridula spray test (NEZARA / NEZAVI). Conditions: Nezara viridula, 96 h, 4 dat, read-out: % efficacy. The procedure: as §2, with “ppm. Barley” for “ppm. Cotton”, “plants (Hordeum vulgare) infected with larvae of” for “plants (Gossypium hirsutum) severely infested by”, “the southern green shield bug (Nezara viridula)” for “the cotton aphid (Aphis gossypii)”, “the efficacy” for “the kill”, “all bugs” for “all aphids”, “no bugs” for “no aphids”

Where [4] appears, read: Phaedon cochleariae, foliar, 168 h, 100 g/ha, 7 days (7 dat).
The mark [5] stands for this setting: Phaedon cochleariae, foliar, 168 h, PHAECO, 20 g/ha, 7 dat.
[6] abbreviates: Phaedon cochleariae, foliar, 168 h, PHAECO, 20 g/ha, 7 dat, read-out: % efficacy.

With `CNC(=O)c1ccc(S(C)(=O)=O)c(-c2nc3cc(C(F)(F)C(F)(F)F)nnc3n2C)n1` [Example I-06], the pest or weed control at 100 ppm with Lucilia cuprina is 95%. Also, the pest or weed control at 0.8 ppm with Myzus persicae [1] stood at 100%. For the same compound, in the assay on Myzus persicae [2], the pest or weed control at 20 g/ha came out at 70% and the pest or weed control at 100 g/ha is 90%. Also, in the assay on Phaedon cochleariae (setting [4]), the pest or weed control at 100 g/ha came out at 67%.

Turning to `CCNC(=O)c1ccc(S(C)(=O)=O)c(-c2nc3cc(C(F)(F)F)nnc3n2C)n1` [reference compound], the pest or weed control at 100 g/ha in the assay with Phaedon cochleariae (setting [4]) amounted to 0%. This compound yielded a percent efficacy (larval mortality) at a fixed application rate at 20 g/ha in the assay on Phaedon cochleariae (setting [5]) of 0%.

`Cn1c(-c2nc(C(=O)NC3CC3)ccc2S(C)(=O)=O)nc2cc(C(F)(F)C(F)(F)F)nnc21` [Example I-07]: the pest or weed control at 0.8 ppm in the assay with Myzus persicae [1] amounted to 90%. The repellent effect flag result in the assay with Phaedon cochleariae (PHAECO, 20 g/ha, 7 dat) is listed as “REP”. Moreover, the pest or weed control at 100 g/ha in the assay on Phaedon cochleariae (setting [4]) turned out to be 100%. In the assay on Phaedon cochleariae (setting [5]), this compound showed a percent efficacy (larval mortality) at a fixed application rate at 20 g/ha of 100%.

With `CCS(=O)(=O)c1ccc(C(=O)NC)nc1-c1nc2cc(C(F)(F)C(F)(F)F)nnc2n1C` [Ex. I-39 from WO2017/025419, reference compound], the “efficacy (nematicidal, gall formation)” value in the assay with Meloidogyne incognita (20 ppm) came to 0%. Besides, the “% efficacy” value in the assay on Myzus persicae [2] (MYZUPE, 4 g/ha, 5 dat) is 0%; in the assay on Phaedon cochleariae (PHAECO, 20 g/ha, 7 dat) it was 0%; with Aphis gossypii (0.8 ppm), 0%; with Aphis gossypii (4 ppm), 55%; in the assay on Nilaparvata lugens, 0%. This compound had an efficacy with Phaedon cochleariae (100 g/ha, 7 days (7 dat)) of 0%.

In the case of `CN(C)C(=O)Nc1ccc(S(C)(=O)=O)c(-c2nc3cc(C(F)(F)F)nnc3n2C)n1` [reference compound], the pest or weed control at 20 ppm in the assay on Meloidogyne incognita was 0%. In the assay with Myzus persicae [2], the pest or weed control at 20 g/ha amounted to 0% and the pest or weed control at 100 g/ha is 0%. In addition, the pest or weed control at 100 g/ha in the assay on Phaedon cochleariae (setting [4]) turned out to be 0%. In the assay with Phaedon cochleariae (setting [5]), this compound displayed a percent efficacy (larval mortality) at a fixed application rate at 20 g/ha of 0%.

Regarding `CCS(=O)(=O)c1ccc(C(=O)N(C)C)nc1-c1nc2cc(C(F)(F)F)nnc2n1C` [reference compound], the pest or weed control at 100 g/ha in the assay on Phaedon cochleariae (setting [4]) came out at 33%. The Emax at 0.8 ppm with Aphis gossypii (Aphis gossypii, 144 h, 0.8 ppm, read-out: % efficacy) amounted to 0%; in the assay with Myzus persicae [3], 50%.

As for `CCNC(=O)c1ccc(S(C)(=O)=O)c(-c2nc3cc(C(F)(F)C(F)(F)F)nnc3n2C)n1` [Example I-14], the pest or weed control at 100 ppm with Lucilia cuprina was 90%. Also, the pest or weed control at 0.8 ppm with Myzus persicae [1] amounted to 90%. Further, in the assay with Phaedon cochleariae (setting [4]), the pest or weed control at 100 g/ha amounted to 100%. Also, the Emax at 20 g/ha in the assay on Phaedon cochleariae (setting [6]) is 83%.

Turning to `CCS(=O)(=O)c1ccc(N(C)C(=O)N(C)C)nc1-c1nc2cc(C(F)(F)F)nnc2n1C` [reference compound], the pest or weed control at 100 g/ha in the assay on Phaedon cochleariae (setting [4]) was 0%. For the same compound, in the assay on Phaedon cochleariae (setting [5]), the percent efficacy (larval mortality) at a fixed application rate at 20 g/ha amounted to 0%. In the assay with Nezara viridula, the Emax at 0.8 g/ha worked out at 0% and the Emax at 4 g/ha is 50%.

For the compound `CNC(=O)c1ccc(S(C)(=O)=O)c(-c2nc3cc(C(F)(F)F)nnc3n2C)n1` [reference compound], in the assay with Myzus persicae [2], the pest or weed control at 20 g/ha was 0%. Further, the pest or weed control at 100 g/ha with Myzus persicae [2] and in the assay with Phaedon cochleariae (setting [4]) was 0% throughout.

With `Cn1c(-c2nc(C(=O)NC3CC3)ccc2S(C)(=O)=O)nc2cc(C(F)(F)F)nnc21` [reference compound], in the assay on Phaedon cochleariae (setting [4]), the pest or weed control at 100 g/ha was 50%. Besides, the Emax at 20 g/ha in the assay with Phaedon cochleariae (setting [6]) worked out at 0%.

Turning to `CCNC(=O)Nc1ccc(S(=O)(=O)CC)c(-c2nc3cc(C(F)(F)F)nnc3n2C)n1` [reference compound], the pest or weed control at 100 g/ha with Phaedon cochleariae (setting [4]) is 50%. Further, the Emax at 4 g/ha was determined as 0% in the assay on Phaedon cochleariae (Phaedon cochleariae, foliar, 168 h, PHAECO, 4 g/ha, 7 dat, read-out: % efficacy) and 0% in the assay on Nezara viridula. Also, the Emax at 20 g/ha with Phaedon cochleariae (setting [6]) stood at 67%.

Regarding `CCS(=O)(=O)c1ccc(N(C)C(=O)N(C)C)nc1-c1nc2cc(C(F)(F)C(F)(F)F)nnc2n1C` [Example I-15], in the assay on Meloidogyne incognita, the pest or weed control at 20 ppm was determined as 90%. Further, the pest or weed control at 0.8 ppm in the assay on Myzus persicae [1] was 100%. Further, in the assay with Myzus persicae [2], the pest or weed control at 20 g/ha was determined as 90% and the pest or weed control at 100 g/ha is 100%. For the same compound, the pest or weed control at 100 g/ha in the assay with Phaedon cochleariae (setting [4]) was found to be 100%. Moreover, the Emax at 20 g/ha in the assay on Phaedon cochleariae (setting [6]) is 83%. In the assay with Nezara viridula, the Emax at 0.8 g/ha was 80% and the Emax at 4 g/ha was determined as 100%.
